Source: the supplement of paper PMC10307832

Legend:
Assay in all cases: relative viability (nuclei count vs DMSO), 5 days (fraction); higher = more cells survive
Selumetinib + Olaparib = compound: Cn1cnc2c(F)c(Nc3ccc(Br)cc3Cl)c(C(=O)NOCCO)cc21 [Selumetinib] + O=C(c1cc(Cc2n[nH]c(=O)c3ccccc23)ccc1F)N1CCN(C(=O)C2CC2)CC1 [Olaparib] (partner 8 µM)
Method in brief: (§1)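 After 5 days of treatment, lung cancer cells in 1536-well plates were fixed and stained in a single step (final 0.05% Triton X-100, 1% formaldehyde, 1 ug/ml Hoechst) and their nuclei counted on 4× images. Treatment had been applied by pin tool the day after seeding as one drug alone or as a fixed anchor-drug dose with five library-drug doses (not always all listed) in √10 steps. Relative viability is the nuclei count of treated wells divided by that of vehicle wells, and values are medians of duplicate plates.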

Selumetinib + Luminespib = compound: Cn1cnc2c(F)c(Nc3ccc(Br)cc3Cl)c(C(=O)NOCCO)cc21 [Selumetinib] + CCNC(=O)c1noc(-c2cc(C(C)C)c(O)cc2O)c1-c1ccc(CN2CCOCC2)cc1 [Luminespib] (partner 0.01 µM)
Method in brief: as §1

Venetoclax + Vorinostat = compound: CC1(C)CCC(CN2CCN(c3ccc(C(=O)NS(=O)(=O)c4ccc(NCC5CCOCC5)c([N+](=O)[O-])c4)c(Oc4cnc5[nH]ccc5c4)c3)CC2)=C(c2ccc(Cl)cc2)C1 [Venetoclax] + O=C(CCCCCCC(=O)Nc1ccccc1)NO [Vorinostat] (partner 1 µM)
Method in brief: as §1

Selumetinib + Tozasertib = compound: Cn1cnc2c(F)c(Nc3ccc(Br)cc3Cl)c(C(=O)NOCCO)cc21 [Selumetinib] + Cc1cc(Nc2cc(N3CCN(C)CC3)nc(Sc3ccc(NC(=O)C4CC4)cc3)n2)n[nH]1 [Tozasertib] (partner 0.1 µM)
Method in brief: as §1

| Cell Line | relative viability (Selumetinib + Olaparib; first compound 0.02 µM) | relative viability (Selumetinib + Olaparib; first compound 0.06325 µM) | relative viability (Selumetinib + Olaparib; first compound 0.2 µM) | relative viability (Selumetinib + Olaparib; first compound 0.6325 µM) | relative viability (Selumetinib + Luminespib; first compound 0.02 µM) | relative viability (Selumetinib + Luminespib; first compound 0.06325 µM) | relative viability (Selumetinib + Luminespib; first compound 0.2 µM) | relative viability (Selumetinib + Luminespib; first compound 0.6325 µM) | relative viability (Venetoclax + Vorinostat; first compound 0.01 µM) | relative viability (Venetoclax + Vorinostat; first compound 0.03162 µM) | relative viability (Venetoclax + Vorinostat; first compound 0.1 µM) | relative viability (Venetoclax + Vorinostat; first compound 0.3162 µM) | relative viability (Venetoclax + Vorinostat; first compound 1 µM) | relative viability (Selumetinib + Tozasertib; first compound 0.02 µM) | relative viability (Selumetinib + Tozasertib; first compound 0.06325 µM) | relative viability (Selumetinib + Tozasertib; first compound 0.2 µM) | relative viability (Selumetinib + Tozasertib; first compound 0.6325 µM) |
| --- | --- | --- | --- | --- | --- | --- | --- | --- | --- | --- | --- | --- | --- | --- | --- | --- | --- |
| NCI-H522 | 0.676 | 0.74 | 0.542 | 0.581 | 1.1 | 1.14 | 0.887 | 0.759 | 1 | 0.849 | 0.96 | 0.839 | 0.896 | 0.567 | 0.515 | 0.537 | 0.505 |
| HCC-366 | 0.415 | 0.296 | 0.198 | 0.19 | – | – | – | – | 0.311 | 0.395 | 0.273 | 0.346 | 0.312 | 0.127 | 0.109 | 0.104 | 0.0897 |
| A-427 | 0.724 | 0.771 | 0.802 | 0.845 | 0.901 | 0.986 | 0.953 | 0.874 | 0.834 | 0.863 | 0.857 | 0.849 | 0.879 | 0.205 | 0.193 | 0.168 | 0.17 |
| NCI-H2347 | 0.386 | 0.467 | 0.403 | 0.355 | 0.431 | 0.287 | 0.272 | 0.332 | 0.574 | 0.753 | 0.461 | 0.593 | 0.591 | 0.505 | 0.489 | 0.35 | 0.228 |
| NCI-H1792 | 0.256 | 0.353 | 0.439 | 0.235 | 0.387 | 0.408 | 0.379 | 0.313 | – | – | – | – | – | – | – | – | – |
| LCLC-97TM1 | 0.292 | 0.407 | 0.3 | 0.19 | 0.79 | 0.622 | 0.415 | 0.411 | 0.453 | 0.892 | 0.443 | 0.635 | 0.667 | 0.201 | 0.255 | 0.216 | 0.223 |
| RERF-LC-KJ | 0.878 | 0.896 | 0.889 | 0.892 | 1.32 | 0.924 | 1.06 | 0.987 | 0.587 | 0.701 | 0.682 | 0.686 | 0.718 | 0.541 | 0.489 | 0.465 | 0.44 |
| NCI-H1993 | 1.16 | 0.808 | 0.876 | 0.795 | 0.786 | 0.776 | 0.695 | 0.569 | 0.747 | 1 | 0.714 | 0.728 | 0.615 | 0.492 | 0.557 | 0.575 | 0.601 |
| NCI-H1734 | 0.604 | 0.391 | 0.557 | 0.56 | 0.195 | 0.176 | 0.17 | 0.152 | 0.613 | 0.876 | 0.711 | 0.761 | 0.76 | 0.244 | 0.251 | 0.234 | 0.227 |
| HCC-44 | 0.988 | 0.997 | 0.983 | 1.01 | 1.33 | 1.03 | 0.909 | 0.519 | 1.05 | 1.14 | 1.08 | 1.1 | 1 | 1.12 | 0.93 | 0.747 | 0.701 |
| SK-MES-1 | 0.728 | 0.779 | 0.695 | 0.599 | 0.74 | 0.559 | 0.344 | 0.375 | 1.01 | 1.1 | 1.06 | 1.08 | 0.966 | 1.08 | 0.894 | 0.949 | 0.676 |
| EPLC-272H | 0.531 | 0.512 | 0.519 | 0.575 | 0.22 | 0.276 | 0.203 | 0.171 | 0.495 | 0.422 | 0.579 | 0.469 | 0.494 | 0.185 | 0.181 | 0.34 | 0.283 |
| NCI-H838 | 0.727 | 0.67 | 0.652 | 0.662 | 0.369 | 0.331 | 0.207 | 0.259 | 0.699 | 0.72 | 0.709 | 0.769 | 0.719 | 0.261 | 0.226 | 0.229 | 0.245 |
| SK-LU-1 | 0.467 | 0.459 | 0.401 | 0.335 | 0.183 | 0.17 | 0.178 | 0.181 | 0.771 | 0.803 | 0.755 | 0.745 | 0.719 | 0.301 | 0.306 | 0.29 | 0.252 |
| NCI-H1623 | – | – | – | – | 0.41 | 0.352 | 0.394 | 0.41 | – | – | – | – | – | 0.343 | 0.342 | 0.351 | 0.361 |
| Calu-6 | 0.62 | 0.489 | 0.421 | 0.362 | – | – | – | – | – | – | – | – | – | – | – | – | – |
| LCLC-103H | 0.656 | 0.703 | 0.66 | 0.663 | 0.922 | 0.876 | 0.831 | 0.697 | 0.866 | 0.92 | 0.648 | 0.825 | 0.737 | 0.514 | 0.458 | 0.435 | 0.349 |
| CAL-12T | 0.678 | 0.651 | 0.595 | 0.564 | 0.322 | 0.365 | 0.284 | 0.362 | 0.684 | 0.782 | 0.683 | 0.865 | 0.56 | 0.34 | 0.364 | 0.301 | 0.229 |
| SW 1573 | 0.479 | 0.403 | 0.368 | 0.437 | 0.207 | 0.168 | 0.214 | 0.228 | 0.712 | 0.656 | 0.643 | 0.692 | 0.572 | 0.15 | 0.145 | 0.174 | 0.153 |
| NCI-H1666 | 0.722 | 0.711 | 0.715 | 0.686 | 0.996 | 0.829 | 0.943 | 0.757 | 0.997 | 1.05 | 1.07 | 1.02 | 1.07 | 0.589 | 0.489 | 0.528 | 0.554 |
| BEN | 1.13 | 1.08 | 1.14 | 0.988 | 0.28 | 0.83 | 0.404 | 0.347 | 0.599 | 0.603 | 0.494 | 0.556 | 0.523 | 0.545 | 0.442 | 0.489 | 0.564 |
